The text below walks through data of ChEMBL document CHEMBL3507680, “University of Dundee, Gates Library screen for HepG2 cell viability”.

The nature of this series: Human HepG2 cell viability assay in 384 well format. It is filed as toxicity, cell-based. The note with it: HepG2 cells, read-out: Inhibition. On the set-up: dose 125 nL, time 70.5 hour; concentration not given beside the values.

For the molecule `O=C(NCCN1CCOCC1)N1CCN(c2ccccc2)CC1`, the cytotoxicity at 70.5 h was -10.1%.

`Cc1noc(C(C)Nc2ccc3oc(C(C)C)nc3c2)n1` (stereo not drawn): the cytotoxicity at 70.5 h came out at 1.64%.

For the molecule `CCc1ccsc1C(=O)N(C)CCc1ccncc1`, the cytotoxicity at 70.5 h was -1.38%.

As to `CCc1c(C(=O)N2CCOC(C)(C)C2)cnn1-c1ccccn1`, the cytotoxicity at 70.5 h is -2.04%.

Turning to `Cc1nnc(NC(=O)NCc2ccc(C)n2C)s1`, the cytotoxicity at 70.5 h was found to be 13.4%.

As to `CC(C)CC(C#N)NC(=O)CCNC(=O)C(C)(C)C` (stereo not drawn), the cytotoxicity at 70.5 h was found to be 2.87%.

Consider `Cc1ccc(C(=O)NCC(C)Cn2ccnc2C)c(=O)[nH]1` (stereo not drawn), for which the cytotoxicity at 70.5 h was determined as 0.288%.

As for `COCCS(=O)(=O)N(Cc1ccsc1)c1ccccc1`, the cytotoxicity at 70.5 h turned out to be 2.67%.

`CC(CNS(C)(=O)=O)Oc1cccc(Cl)c1` (stereo not drawn): the cytotoxicity at 70.5 h stood at 3.7%.

Regarding `Cn1ccnc1C(=O)NCCS(=O)(=O)c1ccc(C(C)(C)C)cc1`, the cytotoxicity at 70.5 h was -3.28%.

Turning to `CN(C)c1nc(CNC(=O)NC2COc3ccccc32)cs1` (stereo not drawn), the cytotoxicity at 70.5 h was found to be 2.4%.

As for `CSc1c[nH]nc1NS(=O)(=O)c1cc(F)ccc1C`, the cytotoxicity at 70.5 h is -3.64%.

In the case of `CN(C)C(=O)N1CCN(Cc2cnc(-c3ccsc3)s2)CC1`, the cytotoxicity at 70.5 h was -11.7%.

For the molecule `O=C(CC1OCCc2ccccc21)NCC1(O)CCCCC1` (stereo not drawn), the cytotoxicity at 70.5 h is -2.94%.

Take `CC(C)CCC(=O)NC(C#N)CC(C)C` (stereo not drawn): the cytotoxicity at 70.5 h was 3.54%.

On to `Cc1ccc(-c2ncc(CN3CCN(C(=O)N(C)C)CC3)s2)o1`, for which the cytotoxicity at 70.5 h is -7.74%.

For the molecule `CN(Cc1ccc(F)cc1F)Cc1cc2c(cc1Br)OCCO2`, the cytotoxicity at 70.5 h is -6.67%.

As to `Cc1ccc(CN(C(=O)NC2CCS(=O)(=O)C2)C2CC2)o1` (stereo not drawn), the cytotoxicity at 70.5 h was -7.82%.

Consider `O=C(NCC1CCS(=O)(=O)C1)N(Cc1ccco1)C1CC1` (stereo not drawn), for which the cytotoxicity at 70.5 h was -10.7%.

Consider `O=C(Cc1c(F)cccc1Cl)Nc1cccc(N2CCCC2)c1`, for which the cytotoxicity at 70.5 h is -4.34%.

Turning to `CCC(CNC(=O)CCn1cncn1)N1CCc2ccccc2C1` (stereo not drawn), the cytotoxicity at 70.5 h is 7.08%.

`CCN(CC)C(CNC(=O)c1ccnc(N(C)C)c1)c1ccsc1` (stereo not drawn): the cytotoxicity at 70.5 h is -5.28%.

Regarding `Cc1ccc(-c2cc(CNC(=O)NC3CCCCNC3=O)on2)cc1` (stereo not drawn), the cytotoxicity at 70.5 h was -8.17%.

Consider `Cc1ccc(CN(C(=O)NCC2CCCO2)C2CC2)o1` (stereo not drawn), for which the cytotoxicity at 70.5 h is -9.69%.

Take `CC(CNC(=O)CCn1cncn1)N1CCc2ccccc21` (stereo not drawn): the cytotoxicity at 70.5 h is -1.72%.

Take `CC(C)CC(=O)N1Cc2ccccc2CC1C(=O)Nc1nccs1` (stereo not drawn): the cytotoxicity at 70.5 h is -8.5%.

Take `CCc1ncc2c(n1)CN(c1nnc(C)c(C)c1C#N)CC2`: the cytotoxicity at 70.5 h came to 5.31%.

For `CCOC(=O)C1(O)CCN(C(=O)Nc2cccc(CC)c2)CC1`, the cytotoxicity at 70.5 h is -0.303%.

`O=C(NCCc1ccncc1)c1cccc(S(=O)(=O)NC2CC2)c1`: the cytotoxicity at 70.5 h worked out at 1.33%.

As to `NC(=O)c1ccc(N2CCN(CCCc3cn[nH]c3)CC2)cc1`, the cytotoxicity at 70.5 h was -0.688%.

With `Cc1ccc(C)n1-c1ccsc1C(=O)NCC(=O)N1CCCC1`, the cytotoxicity at 70.5 h is -1.31%.

As for `NC(=O)COc1cccc(CN2CCCC2c2ccc[nH]2)c1` (stereo not drawn), the cytotoxicity at 70.5 h is -5.09%.

With `Cc1cc(NC(=O)N2CCCC(O)C2)nn1-c1ccccc1Cl` (stereo not drawn), the cytotoxicity at 70.5 h was -5.66%.

As for `Cn1c(=O)ccn(CC(=O)NCC2Cc3ccccc3O2)c1=O` (stereo not drawn), the cytotoxicity at 70.5 h is -0.993%.

On to `CCOCCOC(C)C(=O)Nc1ccc2[nH]c(C)cc2c1` (stereo not drawn), for which the cytotoxicity at 70.5 h is -8.04%.

With `CCSCCC(=O)NCc1cnn(-c2ccc(F)cc2F)c1`, the cytotoxicity at 70.5 h is 7.31%.

As for `CCS(=O)(=O)NC1CCCN(Cc2ccn(C)c(=O)c2)C1` (stereo not drawn), the cytotoxicity at 70.5 h was -9.02%.

Regarding `CCOCCOC(C)C(=O)Nc1ccc2c(ccn2CC)c1` (stereo not drawn), the cytotoxicity at 70.5 h is -6.19%.

`Cn1c(NCC(=O)N2CCCCC2)c(C#N)c(=O)n(C)c1=O`: the cytotoxicity at 70.5 h was -11.6%.

With `CC(=O)N1CCN(C(=O)CCNc2snc(Cl)c2C#N)CC1`, the cytotoxicity at 70.5 h is -10.6%.

On to `CCC(=O)NCC(=O)NC(Cc1ccccc1)c1sccc1C` (stereo not drawn), for which the cytotoxicity at 70.5 h is -2.67%.

For `CC(=O)NC1(C(=O)N2CCC(Nc3cccnn3)CC2)CCCCC1`, the cytotoxicity at 70.5 h came out at 3.94%.

Regarding `Cn1ccc(C(=O)N2CCCC(CNS(C)(=O)=O)C2)cc1=O` (stereo not drawn), the cytotoxicity at 70.5 h is -8.6%.

As to `Cc1ccsc1C(Cc1ccccc1)NC(=O)CSCC(N)=O` (stereo not drawn), the cytotoxicity at 70.5 h was -4.76%.

For the molecule `O=C(CCC1CCCCO1)NCc1cnn(-c2ccc(F)cc2F)c1` (stereo not drawn), the cytotoxicity at 70.5 h stood at 8.18%.

`Cc1ccc(NC(=O)N2CCCN(C(N)=O)CC2)s1`: the cytotoxicity at 70.5 h turned out to be 7.8%.

Regarding `CN(C)CCSc1ccc(NC(=O)c2nccn3ccnc23)cc1`, the cytotoxicity at 70.5 h is -2.14%.

On to `O=C(N1CCN(CCO)CC1)C1(O)Cc2ccccc2C1`, for which the cytotoxicity at 70.5 h was -4.44%.

`O=C(N1CCSCC1)C1(O)Cc2ccccc2C1`: the cytotoxicity at 70.5 h is -2.54%.

Regarding `Cc1cc(C)c(S(=O)(=O)Nc2c(C)noc2C)cc1C(=O)O`, the cytotoxicity at 70.5 h is -2.9%.

Take `O=C(Cn1cccc2oc(=O)nc1-2)NCC1Cc2ccccc2O1` (stereo not drawn): the cytotoxicity at 70.5 h was -5.36%.

As for `O=C(N1CCN(c2ccccc2O)CC1)C1(O)Cc2ccccc2C1`, the cytotoxicity at 70.5 h is 0.667%.

On to `CC(=O)c1ccc(C(=O)NCc2ccnc(N(C)C)n2)cc1`, for which the cytotoxicity at 70.5 h stood at 5.65%.

Consider `Fc1cccnc1N1CCC(NCc2cccc3cn[nH]c23)C1` (stereo not drawn), for which the cytotoxicity at 70.5 h worked out at 3.51%.

`Brc1ccc(C2(NCc3noc(C4CC4)n3)CCC2)cc1`: the cytotoxicity at 70.5 h was 2.53%.

As for `CCC1CCC(N(Cc2cc(=O)n(C)c(=O)n2C)C2CC2)CC1` (stereo not drawn), the cytotoxicity at 70.5 h is -5.27%.

Turning to `CC(C)N1CCCC(N2CCOC3(CCCC3)C2)C1=O` (stereo not drawn), the cytotoxicity at 70.5 h was -7.02%.

As for `CC(C)N1CCC(N2CCOC3(CCCC3)C2)C1=O` (stereo not drawn), the cytotoxicity at 70.5 h is -6.53%.

Take `O=C(c1ccc(SC(F)(F)F)cc1)N1CCOCC1c1ncon1` (stereo not drawn): the cytotoxicity at 70.5 h was -5.57%.

As to `CC(CCc1ccccc1F)C(=O)NS(=O)(=O)N(C)C(C)C` (stereo not drawn), the cytotoxicity at 70.5 h is -12.3%.

Turning to `CC1CCN(CCCNC(=O)C2CCCCC2)CC1`, the cytotoxicity at 70.5 h was -5.79%.

In the case of `CN(C1CCCCC1)S(=O)(=O)NC1CCCN(c2ncccn2)C1` (stereo not drawn), the cytotoxicity at 70.5 h is -8.05%.

On to `CC(SCC(=O)NCCC#N)c1ccc(Cl)cc1` (stereo not drawn), for which the cytotoxicity at 70.5 h was -18.4%.

`O=C1CC(N(C(=O)c2ccc(Oc3ccccc3)cc2)C2CC2)C(=O)N1` (stereo not drawn): the cytotoxicity at 70.5 h was -4.82%.

Turning to `O=C(c1cnn(-c2ccccc2)c1)N1CCN(c2cnccn2)CC1`, the cytotoxicity at 70.5 h is -15.3%.

`CCS(=O)(=O)Cc1ccn(-c2cccc(F)c2)n1`: the cytotoxicity at 70.5 h was -3.75%.

Consider `COc1ccc(C(=O)N(C2CC2)C2CC(=O)NC2=O)cc1` (stereo not drawn), for which the cytotoxicity at 70.5 h is -2.33%.

Regarding `CN(C)C(=O)CCS(=O)(=O)Cc1ccn(-c2cccc(F)c2)n1`, the cytotoxicity at 70.5 h was found to be 4.33%.

Regarding `CC(C)c1nc(C2CCCN(C(=O)CN(C)S(C)(=O)=O)C2)no1` (stereo not drawn), the cytotoxicity at 70.5 h was 5.74%.

Turning to `CCn1nc(C)c(CNC(=O)NCC(C)(O)c2ccsc2)c1C` (stereo not drawn), the cytotoxicity at 70.5 h is -8.94%.

Take `Cn1ncc(C(=O)OCC2CCN(c3ccccc3)C2)c1C(F)F` (stereo not drawn): the cytotoxicity at 70.5 h was -3.5%.

In the case of `CC(C)NC(=O)CCNC(=O)Nc1cnn(-c2ccccc2F)c1`, the cytotoxicity at 70.5 h was -0.437%.

On to `O=C(Nc1cnn(-c2ccccc2Cl)c1)N[C@@H]1C=C[C@H](CO)C1`, for which the cytotoxicity at 70.5 h is -5.42%.

Regarding `CC1CN(S(=O)(=O)c2ccc(F)cc2)c2cccnc2O1` (stereo not drawn), the cytotoxicity at 70.5 h worked out at 1.22%.

For `Cc1ccc(S(=O)(=O)N2CC(C)Oc3ncccc32)c(F)c1` (stereo not drawn), the cytotoxicity at 70.5 h is -7.65%.

As to `CC(C)(C(=O)NCCC(=O)O)c1cccc(Br)c1`, the cytotoxicity at 70.5 h was -12.3%.

In the case of `COC(=O)C(O)C1CCN(CCc2ccncc2)CC1` (stereo not drawn), the cytotoxicity at 70.5 h came to 9.73%.

On to `COC(=O)C(O)C1CCN(CCc2ccccn2)CC1` (stereo not drawn), for which the cytotoxicity at 70.5 h was -1.57%.

As to `COC1CCN(CCNC(=O)C2CCCCC2)CC1`, the cytotoxicity at 70.5 h was -7.3%.

As for `CCOC(=O)C1CCN(C(=O)CN2CCCC2c2ccccc2C)CC1` (stereo not drawn), the cytotoxicity at 70.5 h was -10.7%.

As for `CCOC(=O)C1CCN(C(=O)CN2CCCC2c2cc(C)no2)CC1` (stereo not drawn), the cytotoxicity at 70.5 h is -17.8%.

As to `COC(=O)C(O)C1CCN(CCc2ccc(C)cc2)CC1` (stereo not drawn), the cytotoxicity at 70.5 h was found to be 9.49%.

Regarding `CCS(=O)(=O)CC(=O)N1CCCC(c2noc(C(C)C)n2)C1` (stereo not drawn), the cytotoxicity at 70.5 h worked out at 8.9%.

Take `CCC(NC(=O)CN(C)Cc1ccc(C)o1)c1ccc(C)cc1` (stereo not drawn): the cytotoxicity at 70.5 h is -10.3%.

With `O=C(CCCc1ccccn1)N1CCC(n2cccc2)CC1`, the cytotoxicity at 70.5 h was -1.32%.

For `COCCOCCNC(=O)N1CCN(c2ccccc2C#N)CC1`, the cytotoxicity at 70.5 h was -2.61%.

`CC(C)c1nc(C2CCCN(c3ncccn3)C2)no1` (stereo not drawn): the cytotoxicity at 70.5 h is -10.3%.

Take `O=C(NCc1ccccn1)N1CC=C(c2ccccc2)CC1`: the cytotoxicity at 70.5 h was -16.2%.

With `O=C(NCC(O)c1ccc(F)cc1F)c1ccccc1F` (stereo not drawn), the cytotoxicity at 70.5 h is -12.6%.

On to `CN(C)CCOc1ccc(CNC(=O)c2cccc(Cl)c2Cl)cc1`, for which the cytotoxicity at 70.5 h stood at 8.38%.

As to `Cn1cnc(S(=O)(=O)Nc2cc(C(N)=O)ccc2Cl)c1`, the cytotoxicity at 70.5 h was -8.58%.

Turning to `COc1c(CNCc2ccccc2CO)c(C)nn1C`, the cytotoxicity at 70.5 h is -5.09%.

As to `CCCNC(=O)CN1CCC(NCc2c(C)nn(C)c2OC)CC1`, the cytotoxicity at 70.5 h is -0.725%.

Take `O=C(NCc1ccccc1CO)Nc1ccc2c(c1)CCC2`: the cytotoxicity at 70.5 h was -1.72%.

In the case of `CNC(=O)c1cccc(CCNS(C)(=O)=O)c1`, the cytotoxicity at 70.5 h was -2.35%.

On to `CC(C)c1nnc2n1CC(CNCc1ccc3c(c1)OCCO3)CC2` (stereo not drawn), for which the cytotoxicity at 70.5 h was -3.48%.

Consider `CC(C)c1cnc(CN(C)C2CCN(CCc3ccncc3)C2)o1` (stereo not drawn), for which the cytotoxicity at 70.5 h was determined as 18.9%.

Turning to `COCCCN(Cc1ccncc1)c1cc(C)ncn1`, the cytotoxicity at 70.5 h is 6.24%.

On to `Cc1cc(NCCNS(=O)(=O)c2cccc(Cl)c2)nc(C)n1`, for which the cytotoxicity at 70.5 h was -1%.

For `COc1ccc(F)cc1C[S+]([O-])CC(=O)NCC(C)C` (stereo not drawn), the cytotoxicity at 70.5 h is -0.815%.

As for `O=C(Cc1csc(-c2ncccn2)n1)N1CCN2CCCCC2C1` (stereo not drawn), the cytotoxicity at 70.5 h is 7.23%.

Regarding `CCC1CCCCN1Cc1ncc(-c2ccc(OC)cc2)o1` (stereo not drawn), the cytotoxicity at 70.5 h turned out to be 18.3%.

Turning to `CC(C)(C)NC(=O)CN1CCNCC1`, the cytotoxicity at 70.5 h was 6.83%.
